Experiments:
Type in all cases: physicochemical
[1] = Flow properties: poured density, tapped density and Carr's Index; conditions: for Poured Density: 250 cm^3 measuring cylinder; for Tapped Density: tapped to constant volume
Protocol: The flow properties of the L-leucine were determined by measuring the Carr's Index of the powder. Spray-dried L-leucine was added to a powdered protein (BSA-maltodextrin 50:50).
Carr's Index of a sample was determined by measuring the volume (Vpour) of weight (W) poured into a 250 cm^3 measuring cylinder and tapping the cylinder to obtain constant volume of the sample (Vtap). The poured density (bulk density) and the tap density are calculated as W/Vpour and W/Vtap respectively and Carr's Index is calculated from the tapped density and the poured density by the formula [formula]

[2] = Thickness of flakes (electron microscope observation); conditions: flakes prepared by the spray drying method
Description: Observation of the thickness of the flakes may be made by studying electron microscope (SEM) images of the particles. For example, flakes may be mounted on an electron microscope stub with double sided tape and coated with gold prior to examination on an electron microscope. An alternative method for observing the dimensions of particles of the present invention is by sizing the particles on a microscope slide in a similar way to that described in British Pharmacopoeia 1973 (page 645, Ergotamine Aerosol Inhalation). In this case a small quantity of particles, for example 10 to 100 mg, are dropped onto a microscope slide and examined under a microscope to assess the particle size of the deposit.

[3] = Bulk density (poured density) of powder in a 100 cm^3 measuring cylinder; conditions: L-leucine samples
Protocol: The bulk density (or poured density) of a material of the present invention is determined by the following method:
2 g of the material is poured from weighing paper into a 100 cm^3 graduated glass measuring cylinder in an upright position. Transfer of the material from the paper into the cylinder is made as rapidly as flow permits. The volume occupied by the poured powder in the cylinder is measured to the nearest 0.5 ml (bulk volume) and the weight of the powder is determined.
The bulk density of the material is calculated as the weight of the powder divided by the bulk volume.
The bulk density and particle size diameter (as VMD) were determined for the spray-dried leucine. Bulk density and VMD were determined by the method indicated above.
The bulk density and particle size distribution were determined by the methods described in respect of Example 1 above, and are given in Table 3.

[4] = Particle size distribution by low angle laser light scattering (Mastersizer X); conditions: for D(v,90): diameter below which 90% of particles by volume reside, unit not given; for VMD: volume median diameter, dispersant 0.05% lecithin in cyclohexane
Protocol: The particle size distribution was determined by low angle laser light scattering (Mastersizer X, Malvern Instruments, Malvern, UK). To approximately 5 mg of the sample to be analysed 10 ml of dispersant was added (0.05% lecithin in cyclohexane). The sample suspension was sonicated for 30 seconds before analysis. The volume median diameter (VMD) and D(v,90) were determined. VMD is the diameter such that 50% of the particles by volume have a diameter less than the VMD. D(v,90) is the equivalent volume diameter at 90% cumulative volume. The bulk density and particle size diameter (as VMD) were determined for the spray-dried leucine. Bulk density and VMD were determined by the method indicated above.

[5] = listed as unprocessed L-leucine

With CC(C)C[C@H](N)C(=O)O [spray-dried L-leucine, L-leucine] the “Poured Density” value [1] was 0.043 gcm^−3, the “Tapped Density” value [1] was 0.055 gcm^−3 and the thickness of flakes [2] was “less than 100 nm”.
With CC(C)C[C@H](N)C(=O)O [spray-dried D, L-leucine] the “Bulk Density” value ([3]; Example 1, Table 1) was 0.035 g cm^−3.
In the case of CC(C)C[C@H](N)C(=O)O [unprocessed, L-leucine, reference compound], the “Bulk Density” value ([3]; Example 1, Table 1) is reported as 0.710 g cm^−3, the “Bulk Density” value ([3]; Example 2, Table 3) is reported as 0.70 gcm^−3 and the “Poured Density” value [1, 5] is reported as 0.710 gcm^−3. The “Tapped Density” value [1, 5] was 0.770 gcm^−3.
For CC(C)C[C@H](N)C(=O)O [condensed, L-leucine], the “Bulk Density” value ([3]; Example 2, Table 3) was 0.04 gcm^−3.
With CC(C)C[C@H](N)C(=O)O [spray-dried A, L-leucine] the “Bulk Density” value ([3]; Example 1, Table 1) was 0.042 g cm^−3, the “D(v,90)” value [4] was 10.6 and the VMD [4] was 4.2 μm.
With CC(C)C[C@H](N)C(=O)O [milled, L-leucine, reference compound] the “Bulk Density” value ([3]; Example 2, Table 3) was 0.30 gcm^−3 and the VMD [4] was “milled (VMD = 18 μm)”.
With CC(C)C[C@H](N)C(=O)O [spray-dried B, L-leucine] the “Bulk Density” value ([3]; Example 1, Table 1) was 0.035 g cm^−3.
In the case of CC(C)C[C@H](N)C(=O)O [spray-dried C, L-leucine], the “Bulk Density” value ([3]; Example 1, Table 1) is reported as 0.029 g cm^−3.
For CC(C)C[C@H](N)C(=O)O [spray-dried E, L-leucine], the “Bulk Density” value ([3]; Example 1, Table 1) was 0.032 g cm^−3, the “D(v,90)” value [4] was 11.9 and the VMD [4] was 3.9 μm.
